From patent publication US20250222143A1, “TARGETED RADIOTHERANOSTICS BASED ON POLYAZAMACROCYCLIC, MIXED-DONOR SCAFFOLDS LINKED TO A TARGETING VECTOR” (The Research Foundation for the State University of New York, priority 2021, published 2025)
Values joined by “and” are separate entries in the source; they are usually repeats but may differ in a detail not shown here. Equal values may be shown once. Read-outs that look alike come from different tables or passages of the source. Blank lines part the entries; values can stand above or below the molecule they belong to.

How the values were obtained:
[1] = tested on: PSMA+PC-3 PIP tumors; experiment: Pilot therapy study with ^177Lu-picaga-DUPA; settings: 3.3 MBq, n = 4, 14 days
[2] = target: T1, human serum albumin (Homo sapiens, UniProt P02768); experiment: Binding to human serum albumin (ultrafiltration, Lu in filtrate by ICP-OES)
T1 sequence (P02768 25-609): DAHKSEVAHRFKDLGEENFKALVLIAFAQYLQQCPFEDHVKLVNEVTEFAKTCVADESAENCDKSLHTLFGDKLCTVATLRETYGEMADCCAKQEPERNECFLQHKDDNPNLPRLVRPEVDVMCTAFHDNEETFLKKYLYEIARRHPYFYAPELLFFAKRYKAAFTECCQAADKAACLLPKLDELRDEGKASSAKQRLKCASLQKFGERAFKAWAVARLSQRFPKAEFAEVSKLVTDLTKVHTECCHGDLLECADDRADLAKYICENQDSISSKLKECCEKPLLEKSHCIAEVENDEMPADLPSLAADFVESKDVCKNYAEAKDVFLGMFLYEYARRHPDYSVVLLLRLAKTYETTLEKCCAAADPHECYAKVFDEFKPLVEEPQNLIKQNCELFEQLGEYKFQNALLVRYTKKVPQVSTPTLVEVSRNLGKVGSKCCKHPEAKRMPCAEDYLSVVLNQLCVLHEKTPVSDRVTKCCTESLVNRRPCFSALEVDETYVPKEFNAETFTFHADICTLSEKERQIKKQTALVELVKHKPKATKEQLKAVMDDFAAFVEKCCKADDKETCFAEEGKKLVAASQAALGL

[3] = cited from earlier work
[4] = target: T1, human serum albumin; settings: 15 min, 0.1 mM
[5] = target: T2, PSMA (Homo sapiens, UniProt Q04609); settings: value taken from literature; cited from earlier work
T2 sequence (Q04609 whole entry): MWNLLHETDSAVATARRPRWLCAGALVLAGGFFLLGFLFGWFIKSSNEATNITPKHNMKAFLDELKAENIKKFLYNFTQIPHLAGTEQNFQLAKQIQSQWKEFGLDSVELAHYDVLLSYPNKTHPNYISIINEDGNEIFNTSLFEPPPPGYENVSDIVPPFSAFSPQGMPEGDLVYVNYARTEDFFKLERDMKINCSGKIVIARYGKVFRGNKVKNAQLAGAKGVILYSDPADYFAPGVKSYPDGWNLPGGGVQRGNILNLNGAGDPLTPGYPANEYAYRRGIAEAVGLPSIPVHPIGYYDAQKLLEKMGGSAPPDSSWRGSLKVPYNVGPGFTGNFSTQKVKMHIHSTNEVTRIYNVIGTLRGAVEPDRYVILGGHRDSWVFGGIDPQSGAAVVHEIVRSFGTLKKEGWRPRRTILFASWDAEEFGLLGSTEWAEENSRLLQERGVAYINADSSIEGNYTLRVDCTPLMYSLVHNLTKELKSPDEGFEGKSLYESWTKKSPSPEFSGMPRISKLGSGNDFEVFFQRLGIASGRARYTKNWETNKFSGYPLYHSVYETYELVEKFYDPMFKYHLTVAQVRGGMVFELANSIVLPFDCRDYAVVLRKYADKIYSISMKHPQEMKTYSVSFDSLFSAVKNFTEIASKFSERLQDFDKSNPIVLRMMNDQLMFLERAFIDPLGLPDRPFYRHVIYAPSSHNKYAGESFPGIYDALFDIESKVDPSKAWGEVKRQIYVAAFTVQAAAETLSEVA

[6] = target: T2, PSMA; experiment: Displacement assay against ^99mTc(CO)3-MIP-1427 for binding affinity to PSMA; settings: displacement of ^99mTc-MIP-1427, DCFPyL as internal reference; read-out: affinity (Ki) to the PSMA target
Method: Stock solutions of Lu-(picaga)-HSA in (DMSO: H2O, 1:5) were prepared and concentrations were determined by ICP-OES in accordance with previously published method.
The Ki was determined by nonlinear regression analysis using GraphPad Prism software.
Prior to the assessment of the ^177Lu-labeled compounds, binding affinity to the biological target PSMA was evaluated.

[7] = Formulation stability of [Sc-^18F(picaga-DUPA)]^- by radioHPLC; type: physicochemical
Method: The stability of [Sc-^18F(picaga-DUPA)]^− in both DPBS and saline was evaluated for up to 4 h. It was determined that [Sc-^18F(picaga-DUPA)]^− was stable in both DPBS and saline for at least 4 h (FIG. 7A, B).
The [^18F]KF stock solution was prepared as previously described (39.4 mCi, 693 μL, pH 2.5). The Sc-^18F precursor was formed via direct addition of 200 μL 0.25 M ammonium acetate (pH 4.1) buffer and 20 nmol ScCl3 stock (0.25 eq.) to the [^18F]KF stock. Following incubation at room temperature for 10 minutes, 79.8 nmol picaga-DUPA (1 eq.) was added to 400 μL of the Sc-^18F precursor stock solution (13.11 mCi), then incubated at 100° C. for 25 minutes. The major [^18F]Sc—F(picaga)-DUPA species was separated the minor isomer and Sc-^18F via analytical radioHPLC (Method C). (FIG. 34) Purified [^18F]Sc—F(picaga)-DUPA complex was concentrated to dryness under reduced pressure and formulated for injection in DPBS (2.11 mCi, 550 μL). Dose formulation stability was analyzed at 0 and 4 hours (FIG. 34A), before and after in vivo experiments, via radioHPLC (Method C). Apparent molar activity: 164 mCi/μmol.

[8] = Dose formulation stability of ^177Lu-radiolabeled ligands by radio-HPLC; type: physicochemical; settings: DMSO:NH4OAc:phosphate buffered saline, room temperature
Method: The stability for ^177Lu-radiolabeled ligands was evaluated by radio-HPLC for radiolytic degradation and decomplexation at relevant time points concentrations for dose preparation, storage, and administration. (picaga)-HSA was radiolabeled as previously described at a specific activity of 0.08 mCi/nmol (3.0 MBq/nmol) and diluted in PBS. A 0.1 mL aliquot was removed, stored at room temperature, and tested for stability by radio-HPLC. The activity concentration at t=0 was 0.12 mCi in 0.1 mL.
Under the same conditions, ^177Lu-PSMA-617 was determined to be 80% intact.

[9] = tested on: PSMA+PC3 PIP cells; experiment: Cell uptake and internalization; type: cell-based
Method: The binding and internalization of ^177Lu-(picaga)-HSA and ^177Lu-PSMA-617 was evaluated in PSMA+PC3 PIP cells. In brief, 5×10^5 PC3 PiP cells are suspended, washed and aliquoted. The internalized fraction is determined using ^177Lu-ligand in PC3 PiP cells, with ligands radiolabeled at a specific activity of 0.08 mCi/nmol (3.0 MBq/nmol) and diluted in PBS. […] Subsequently, cell samples were lysed by addition of NaOH (1 M, 1 mL) to release cellular contents and internalized ^177Lu-(picaga)-HSA. Radioactive counts are quantitated separately using a gamma well counter, with each incubation conducted in triplicate.

[10] = Whole body activity clearance (dose calibrator); design: species or system mice; settings: mouse, in vivo
Method: Whole body activity was measured by placing each mouse into a dose-calibrator. % Remaining activity was given by =[At/At=0] where At is the decay-corrected whole body activity at time t and At-0 is the total activity measured by dose calibrator p.i. The data were fit to a one-phase decay curve in GraphPad Prism and the biological decay constant K was calculated to be K=0.005638 h^−1 for ^177Lu-(picaga)-HSA and K=0.1415 h^−1 for ^177Lu-PSMA-617.
To approximate clearance of the ^177Lu-constructs, therapy cohort treated with ^177Lu-(picaga)-HSA and ^177Lu-PSMA-617 were monitored for residual whole-body activity remaining in the mouse. The whole-body activity remaining was plotted and the biological half-life in PSMA+tumor-bearing mice was determined using nonlinear regression in Graph Pad Prism (FIG. 16; Table 5). […] This is attributable to both the longer blood half-life because of the HSA-binding functionality and to the enhanced tumor uptake afforded by the longer blood circulation.

[11] = tested on: PSMA+PC-3 PIP tumors; experiment: Single dose radiotherapy study in PC-3 PIP tumor-bearing mice; settings: single dose 3.7 MBq
[12] = Spectrophotometric pH-dependent titration (complex formation pKa, speciation); type: physicochemical
Text: As was previously shown, radiolabeling of Lu-177 with L1 is not feasible at room temperature, in part due to the comparatively high formation pKa of the [Lu(L1)] coordination complex (pH 2.4) (Vaughn, B. A. et al. 2021).

[13] = tested on: PSMA + and PSMA − tumors; settings: previous work, 2 h post-injection, n = 4, cited from earlier work

SMILES: O=C([O-])CN1CCN(Cc2cccc(C(=O)[O-])n2)CCN(C(CCC(=O)NCCCCCNC(=O)CCC(NC(=O)NC(CCC(=O)O)C(=O)O)C(=O)O)C(=O)[O-])CC1.[177Lu+3] (stereo not drawn) [^177Lu-picaga-DUPA]
delay in tumor growth (pilot data) [1]: delay in tumor growth for ^177Lu-PSMA-617 was similar to the delay observed in our pilot data

difference in compound in the filtrate with or without HSA ([2]; 4.5% HSA in PBS vs PBS, chelator-only control): no significant difference
SMILES: O=C([O-])CN1CCN(CC(=O)[O-])CCN(Cc2cccc(C(=O)[O-])n2)CC1.[Lu+3] [Lu-mpaten]

SMILES: O=C([O-])CN1CCNCCN(CC(=O)[O-])CC1.[Al+3].[OH-] [[(Al(NO2A)(OH)], reference compound]
pH at which hydroxide complex can form ([3]; literature): < 5

binding to HSA compared to PBS [4]: 55±1.2%
SMILES: O=C(O)CC[C@H](NC(=O)N[C@@H](CCCCNC(=O)[C@H](Cc1ccc2ccccc2c1)NC(=O)[C@H]1CC[C@H](CNC(=O)CN2CCN(CC(=O)O)CCN(CC(=O)O)CCN(CC(=O)O)CC2)CC1)C(=O)O)C(=O)O [PSMA-617]
Ki [5]: 6.9 ± 1.3 nM

SMILES: O=C([O-])CN1CCN(CC(=O)[O-])CCN(Cc2cccc(C(=O)[O-])n2)CC1.[Lu+3] [[Lu(L1)]]
complex formation pKa (pH of first complex species) ([3]; previously shown (Vaughn, B. A. et al. 2021)): 2.4

SMILES: O=C([O-])CN1CCN(Cc2cccc(C(=O)[O-])n2)CCN(C(CCC(=O)NC(CCCCNC(=O)CCCc2ccc(I)cc2)C(=O)NCC2CCC(C(=O)NC(Cc3ccc4ccccc4c3)C(=O)NCCCCC(NC(=O)NC(CCC(=O)O)C(=O)O)C(=O)O)CC2)C(=O)[O-])CC1.[Lu+3] (stereo not drawn) [^natLu-(picaga)-HSA]
Ki [6]: 1.4 ± 0.6 nM
binding to HSA compared to PBS ([2]; 0.1 mM ^natLu complex, 4.5% HSA in PBS, 37° C., 15 min, 50 KDa filter): 80±3.3%

stability in DPBS ([7]; DPBS, evaluated for up to 4 h): at least 4 h
stability in saline ([7]; saline, evaluated for up to 4 h): at least 4 h
SMILES: O=C([O-])CN1CCN(Cc2cccc(C(=O)[O-])n2)CCN(C(CCC(=O)NCCCCCNC(=O)CCC(NC(=O)NC(CCC(=O)O)C(=O)O)C(=O)O)C(=O)[O-])CC1.[18F-].[Sc+3] (stereo not drawn) [Sc-^18F(picaga)-DUPA]
radioHPLC after purification and storage in PBS for 4 hours [7]: no detectable decomposition even after 4 hours
radioHPLC after purification and storage in PBS for 4 hours ([7]; listed as [^18F]Sc—F(picaga)-DUPA): No degradation or defluorination is observed

SMILES: O=C([O-])CN1CCN(CC(=O)[O-])CCN(CC(=O)NCC2CCC(C(=O)N[C@@H](Cc3ccc4ccccc4c3)C(=O)NCCCC[C@H](NC(=O)N[C@@H](CCC(=O)O)C(=O)O)C(=O)O)CC2)CCN(CC(=O)[O-])CC1.[177Lu+3] (stereo partly drawn) [^177Lu-PSMA-617, reference compound]
complex stability in dose formulation, 4 h ([8]; 4 h): >99%
complex stability in dose formulation, 24 h ([8]; 24 h): >99%
complex stability in dose formulation, 48 h ([8]; 48 h): >99%
complex stability in dose formulation, 14 d (% intact) ([8]; 14 d): 80%
% Internalization 2 h ([9]; 2 h): 33.53±1.40% and 33.53%
% Uptake 2 h ([9]; 2 h): 6.36±0.43% and 6.36%
% Internalization 4 h ([9]; 4 h): 36.11±2.93% and 36.11%
% Uptake 4 h ([9]; 4 h): 6.15±0.21% and 6.15%
% Internalization 24 h ([9]; 24 h): 50.93±2.14% and 50.93%
% Uptake 24 h ([9]; 24 h): 9.60±0.11% and 9.60%
% Uptake Blocking ([9]; blocking with unlabeled glu-urea-glu PSMA targeting molecule): 0.45±0.03% and 0.45%
biological decay constant K [10]: 0.1415 h^−1
biological half-life t1/2 [10]: 4.9 h
% activity remaining in whole body p.i., 0 h ([10]; 0 h): 100.00 ± 0.00%
% activity remaining in whole body p.i., 24 h ([10]; 24 h): 3.35 ± 0.16%
relative body weight during therapy study [11]: dropped during the study
tumor growth / survival compared to control cohort ([11]; PC-3 PIP tumor-bearing mice): marginally enhanced survival and delayed tumor growth
median survival ([11]; PC-3 PIP tumor-bearing mice, study to day 60): 21 days

complex formation pKa (pH of first complex species) [12]: 0.9
SMILES: O=C([O-])CN1CCN(CC(=O)[O-])CCN(Cc2cccc(P(=O)([O-])[O-])n2)CC1.[Lu+3] [[Lu(L2)]]

SMILES: O=C([O-])CN1CCN(CC(=O)[O-])CCN(Cc2cccc(C(=O)[O-])n2)CC1.[OH-].[Sc+3] [[Sc(mpatcn)(OH)]^−]
pKa of hydroxide complex ([3]; deprotonation of Sc-bound inner sphere water, literature): 9.1

SMILES: O=C([O-])CN1CCN(Cc2cccc(C(=O)[O-])n2)CCN(C(CCC(=O)NCCCCCNC(=O)CCC(NC(=O)NC(CCC(=O)O)C(=O)O)C(=O)O)C(=O)[O-])CC1.[47Sc+3] (stereo not drawn) [^47Sc(picaga)-DUPA]
Blood 2 h ([13]; Blood): 0.19 ± 0.14 % ID/g
Bone 2 h ([13]; Bone): 0.12 ± 0.06 % ID/g
Heart 2 h ([13]; Heart): 0.11 ± 0.03 % ID/g
Kidney 2 h ([13]; Kidney): 7.13 ± 3.73 % ID/g
Liver 2 h ([13]; Liver): 1.22 ± 1.88 % ID/g
Muscle 2 h ([13]; Muscle): 0.08 ± 0.03 % ID/g
PSMA + Tumor 2 h ([13]; PSMA + Tumor): 12.74 ± 2.87 % ID/g
PSMA − Tumor 2 h ([13]; PSMA − Tumor): 0.77 ± 1.11 % ID/g
Sm. Int. 2 h ([13]; Sm. Int.): 0.18 ± 0.07 % ID/g
Spleen 2 h ([13]; Spleen): 0.24 ± 0.10 % ID/g
